The values below come from US10117433B2 (priority 2011, dated 2018).

For series [1], the system named is adult worker honeybees (Apismellifera). The note with it: acute oral; cited from earlier work.
Series [2] shares this test system. The note with it: acute contact; cited from earlier work.
The test system of series [3] is M. brassicae larvae. On the set-up: species or system Mamestra brassicae. The note with it: in vivo.
The test system of series [4] is M. brassicae larvae. On the set-up: species or system Mamestra brassicae. The following applies: in vivo. The source holds these as a separate data set.
The next series concerns Honeybees. The note with it: in vivo.
Series [5] deals with adult worker honeybees (Apismellifera). The note with it: in vivo, po.
In series [6] the test system is cereal aphid Sitobion avenae. The following applies: in vivo.
For series [7], the system named is tomato moth (Lacanobia oleracea). Type of series: in vivo. The method, then: Effect of Transgenic Arabidopsis Expressing Fusion Proteins when Fed to Tomato Moth (Lacanobia oleracea)
20 neonate Lacanobia oleracea larvae were placed in pots (4 replicates, 5 larvae per pot) and allowed to feed on detached leaves of transgenic Arabidopsis plants. Survival was measured over the course of a 14-day period and weights were measured at days 11 and 14. Assays were repeated giving a total sample number of 40. Treatments used were control, GNA-expressing, ButalT/GNA fusion protein expressing, and GNA/ButalT fusion protein expressing. Two independent lines expressing the ButalT/GNA fusion protein (lines 40 and 45) were used.

The test system of series [8] is central nerve chord of M. brassicae larvae. The note with it: in vivo.
The subject of series [9] is M. brassicae larvae. On the set-up: species or system Mamestra brassicae. The following applies: in vivo. The source holds these as a separate data set.
A further series concerns Heliothis virescens. The note with it: in vivo; cited from earlier work.
A further series concerns newborn mice. The note with it: mouse, in vivo; cited from earlier work.
Series [10] relates to cotton bollworm Heliothis armigera. The following applies: in vivo; cited from earlier work.
Series [11] relates to M. brassicae larvae. On the set-up: species or system Mamestra brassicae. The note with it: in vivo. This is another data set of the same source.
For series [12], the system named is vertebrate-muscle preparations. The following applies: cited from earlier work.

Read-outs that look alike come from different tables or passages of the source.

As for `C/C(=N\C#N)N(C)Cc1ccc(Cl)nc1` [Acetamiprid], the “reported LD50” value in series [1] was 14.5 ug/bee; in series [2], 8.09 μg/bee.
For Galanthus nivalis agglutinin [GNA], the “effect upon larvae when injected” value in the series with M. brassicae larvae [3] was “no effect”. In the series with M. brassicae larvae [4], the “average weight of surviving larvae reduced by” value is 45% and the “survival (larvae remained)” value was 80%. Besides, in the series with Honeybees, the toxicity by injection result is listed as “higher toxicity than FP5”. In series [5], the LD50 was above 100 μg/bee, the LD50 to honeybees entry is “greater than 100 ug/bee” and the effects on mortality result is listed as “smaller effects on mortality than acetamiprid”. For the same compound, the “survival compared to control treatments” value in [6] is recorded as “does not have a significant effect on the survival”. For the same compound, in series [7] (first assay (FIG. 16), 14 days, ButalT/GNA line 40, GNA line 3, control 93%), the survival amounted to 90%. For the same compound, the “survival / larval mortality compared to controls” value in series [7] (neonate larvae, conclusions) is “no effect on larval mortality”. In addition, the “reduction in mean weight” value in series [7] (second assay, days 11 and 14, vs control) was “approx. 50%”. Also, in [8], the “bands in nerve tissue (anti-GNA Western blot)” value is “not observed”; the “presence in nerve chord and haemolymph samples (anti-GNA Western blot)” value was “positive immunoreactivity”.
ω-ACTX-Hv1a: the “larval feeding / larval growth” value with M. brassicae larvae [9] is listed as “no reduction in larval growth”. For the same compound, the oral activity result in the series with M. brassicae larvae [9] (po) is “not orally active”. For the same compound, in the series with M. brassicae larvae [3], the “symptoms after injection of higher doses” value is listed as “displayed symptoms of paralysis”. In the series on Heliothis virescens, the PD50 is given as 250 pmol/g. In addition, the “effect on newborn mice” value in the series with newborn mice was “harmless”. Moreover, the ED50 in series [10] is listed as 3 nmol/g. Besides, the larval growth entry in the series with M. brassicae larvae [11] is on record as “no effect on larval growth”. The “effect on vertebrate-muscle preparations” value in series [12] is “no effect”.
